Assay type in all cases: in vitro ADME
Series [1] is described as follows: Plasma protein binding (equilibrium dialysis), mouse. To be noted: for fraction unbound: equilibrium dialysis, read-out: PPB (%), mouse (converted); for recovery: plasma (undiluted, freshly thawed), PPB assay recovery. The method, then: (§1) The assay was performed in a multiple-use 96-well dialysis unit (HTD96b dialyzer). Each individual well unit consisted of 2 chambers separated by a vertically aligned dialysis membrane of predetermined pore size (MWCO 12-14 kDa). 120 μl of non-diluted freshly thawed mouse, rat or human plasma spiked with the compound (1 μM, final DMSO concentration 1%) was added to one chamber and the same volume of PBS buffer pH 7.4 to the other chamber. HTD96b dialyzer was covered with adhesive sealing film and incubated at 37° C., shaking at 100 rpm for 5 hours.
(§2) For samples preparation, an aliquot of the content of each chamber had been mixed with the same volume of the blank opposite matrix. In order to define non-specific loss of the compound during this assay, a standard solution was created by mixing an aliquot of spiked plasma with blank buffer without dialysis. Samples were diluted 10-fold with 100% acetonitrile with subsequent plasma proteins sedimentation by centrifuging at 6000 rpm for 5 minutes. Supernatants were analyzed using HPLC system coupled with tandem mass spectrometer (API3000 PE Sciex). Acquisition and analysis of the data were performed using Analyst 1.5.2 software (PE Sciex). The percentage of plasma protein bound compound and recovery were calculated using following equations: […]
(§3) The percentage of plasma protein bound compound and recovery were calculated using following equations:
(§4) with: • Cplasma=peak area of the compound in the plasma/peak area of the IS in the plasma • Cbuffer=peak area of the compound in the buffer/peak area of the IS in the buffer • ‘Concentration’ is the ratio between compound and IS peak areas
(§5) The recovery is a control, which allows to be sure that the compound has not a non-specific binding to the plates or is not stable in the plasma in these conditions:
(§6) with: • PBS=(ratio of the peak area of the compound/peak area of the IS) in the PBS compartment after 4 h • Plasma=(ratio of the peak area of the compound/peak area of IS) in the plasma compartment after 4 h • Recov=Recovery=ratio of the peak are of the compound I the well recovery/peak area of the IS in the well recovery at TO
(§7) The solubility of the compound in the final test concentration in PBS is checked by microscope to indicate whether precipitation is observed or not. If a precipitate is observed, no data of PPB is generated.
Background: In equilibrium dialysis free small molecules cross a membrane that holds back macromolecules.

Series [2] is described as follows: Plasma protein binding (equilibrium dialysis), human. To be noted: for fraction unbound: equilibrium dialysis, read-out: PPB (%), human (converted); for recovery: plasma (undiluted, freshly thawed), PPB assay recovery. The protocol:
as §1, §2, §3, §4, §5, §6, §7

A short description of series [3]: Plasma protein binding (equilibrium dialysis), rat. The settings on record: for fraction unbound: equilibrium dialysis, read-out: PPB (%), rat (converted); for recovery: plasma (undiluted, freshly thawed), PPB assay recovery. The method, then: as §1, §2
Prior to the start of the experiment, dialysis membranes (membrane strips, MW cut-off 12-14 kDa, HTDialysis, Cat.NoJl 101) are soaked in deionized water for 60 min, transferred and left overnight in 20% EtOH. The day of experiment, a 10 mM stock solution of the compound in DMSO is diluted with a factor 10 in DMSO. This solution is further diluted in freshly thawed human, rat, mouse or dog plasma (BioIVT) with a final concentration of 5 μM and final DMSO concentration of 0.5%.
From this solution, an aliquot of 50 μL was taken and matrix matched with an equivalent volume of PBS for the recovery plate, after which 6 volumes of STOP solution were added to the recovery plate. For these recovery plates, no incubation is done.
Equilibrium Dialysis Device (96-well, model HTD96b, HTDialysis, Cat. No. #1006) is assembled according to manufacturer's instructions. Immediately after assembly, a volume of 100 μL of plasma (spiked with compound) is placed on one side of the well and another 100 μL of blank PBS buffer are added to the other side, respectively. Each compound is tested in duplicate. Acebutolol and Nicardipine are used as low and very high binding controls, except for the mouse, Caffeine is used as low binder instead Acebutolol. If the PPB values for these controls are not in the range determined by the historical data, the assay is not validated.
The plate is incubated for 4 h at 37° C. while shaking at 230 rpm. Thereafter, an aliquot of 50 μL is taken from each side of the well and matrix matched (mix of equal volumes of spiked plasma with blank PBS buffer and samples from buffer compartment with blank plasma). Matrix matched samples are further mixed with 3 volumes of STOP solution (acetonitrile/MeOH 2/1 with diclofenac as internal standard). After brief mixing and centrifugation (at 2400 rpm for 15 min, at +4° C.), the supernatant is filtered and transferred into new 96-well plates for analysis on LC-MS/MS (systems API4000).
as §3, §4
The recovery is a control, which allows to be sure that the compound has not a non-specific binding to the plates or is not stable in the plasma in these conditions: […]

Series [4] is described as follows: Metabolic stability in hepatocytes, mouse. The settings on record: hepatocytes (cryopreserved), read-out: Mouse Clint (μL/min/10^6 cells). The method, then: The aim of this assay is to determine the metabolic stability of the compound in hepatocytes (cryopreserved) of different species (mouse CD1, rat Sprague Dawley, dog Beagle). Low hepatocyte stability may result in the formation of unwanted metabolites, high clearance, and therefore is not desirable. The decrease in parent was assessed by measuring the percentage remaining by LC-MS/MS analysis. The batches of hepatocytes were tested for quality control using Testosterone, Umbelliferone and Caffeine as reference compounds.
A 10 mM stock solution of test compound in DMSO was first diluted in DMSO to 3 mM, and then in modified Krebs-Henseleit buffer (Sigma, K3753) to 5 μM. This compound dilution was added to a suspension of pooled cryopreserved hepatocytes (BioIVT) at 37° C. under gentle shaking. Final reaction conditions were: 1 μM of test compound, <0.1% DMSO, 0.5 million viable hepatocytes/mL, and 75 μL incubation volume.
After 0, 10, 20, 45, 90, 120 and 180 min of incubation, the reaction was terminated with 3 volumes of MeCN:MeOH (2:1) containing diclofenac as analytical internal standard. Samples were mixed, centrifuged and the supernatant analyzed by LC-MS/MS (systems API4000). The instrument responses (ratios of test compound and internal standard peak areas) were referenced to the zero time point samples (considered as 100%) in order to determine the percentage of compound remaining. Plots of percentage compound remaining were used to determine the intrinsic clearance in the hepatocyte incubations.
Testosterone (1 μM) and Umbelliferone (1 μM) and Caffeine (1 μM) were used as reference compounds, being unstable and stable compounds respectively. If the hepatocyte stability values for these controls are not in the range determined by the historical data, the assay is not validated.

The values that follow come from patent US20240368133A1, “Compounds for the Treatment of Pain, in Particular, Neuropathic Pain, and/or Other Diseases or Disorders that are Associated with AT2R and/or AT2R Mediated Signaling” (Confo Therapeutics N.V., priority 2021, published 2024).

Consider `CC(C)Cc1ccc(-c2nn[nH]n2)c(N2CCN(Cc3nc4ccccc4c(=O)[nH]3)CC2)c1` [Compound A-31, 2-[[4-[5-isobutyl-2-(2H-tetrazol-5-yl)phenyl]piperazin-1-yl]methyl]-3H-quinazolin-4-one], for which the fraction unbound was less than 0.05 in series [1], less than 0.08 in series [2] and less than 0.1 in series [3]. Also, the recovery in series [1] was 88%; in series [2], 82%; in series [3], 84%.
With `CC(C)Cc1ccc(-c2nn[nH]n2)c(N2CCN(Cc3cccnn3)CC2)c1` [Compound A-90, 3-[[4-[5-isobutyl-2-(2H-tetrazol-5-yl)phenyl]piperazin-1-yl]methyl]pyridazine], the figures for the fraction unbound in series [1], in series [2] and in series [3] were 0.22, 0.05 and 0.23, respectively. Besides, the recovery turned out to be 97% in series [1], 83% in series [2] and 105% in series [3].
For the molecule `CC(C)Cc1cc(F)c(-c2nn[nH]n2)c(N2CCN(Cc3cccnn3)C(C)C2)c1` (stereo not drawn) [Compound A-173, 3-[[4-[3-fluoro-5-isobutyl-2-(2H-tetrazol-5-yl)phenyl]-2-methyl-piperazin-1-yl]methyl]pyridazine], the hepatocyte CLint in series [4] worked out at 4 µL/min/1e6 cells. The fraction unbound in series [1] is 0.12; in series [2], 0.05; in series [3], 0.19. The recovery amounted to 92% in series [1], 94% in series [2] and 100% in series [3].
As to `CC(C)Cc1cc(F)c(-c2nn[nH]n2)c(N2CCN(Cc3cccnn3)[C@@H](C)C2)c1` [Compound A-174, 3-[[(2S)-4-[3-fluoro-5-isobutyl-2-(2H-tetrazol-5-yl)phenyl]-2-methyl-piperazin-1-yl]methyl]pyridazine], the hepatocyte CLint in series [4] is less than 5.4 µL/min/1e6 cells. Besides, the values for the fraction unbound in series [1], in series [2] and in series [3] were 0.027, 0.026 and 0.017, respectively. Further, the recovery turned out to be 95% in series [1], 99% in series [2] and 90% in series [3].
As to `CCC1CN(c2cc(CC(C)C)cc(F)c2-c2nn[nH]n2)CCN1Cc1cccnn1` (stereo not drawn) [Compound A-178, 3-[[2-ethyl-4-[3-fluoro-5-isobutyl-2-(2H-tetrazol-5-yl)phenyl]piperazin-1-yl]methyl]pyridazine], the hepatocyte CLint in series [4] worked out at 0.8 µL/min/1e6 cells. Besides, the fraction unbound was 0.1 in series [1], 0.04 in series [2] and 0.12 in series [3]. Moreover, the values for the recovery in series [1], in series [2] and in series [3] were 93%, 99% and 96%, respectively.
As for `CCC1CN(Cc2cccnn2)CCN1c1cc(CC(C)C)cc(F)c1-c1nn[nH]n1` (stereo not drawn) [Compound A-181, 3-[[3-ethyl-4-[3-fluoro-5-isobutyl-2-(2H-tetrazol-5-yl)phenyl]piperazin-1-yl]methyl]pyridazine], the hepatocyte CLint in series [4] was 1 µL/min/1e6 cells. The results for the fraction unbound in series [1], in series [2] and in series [3] were 0.07, 0.03 and 0.12, respectively. Further, the values for the recovery in series [1], in series [2] and in series [3] were 96%, 95% and 96%, respectively.
Turning to `CC(C)Cc1cc(F)c(-c2nn[nH]n2)c(N2CC(C)N(Cc3cccnn3)CC2C)c1` (stereo not drawn) [Compound A-183, 3-[[4-[3-fluoro-5-isobutyl-2-(2H-tetrazol-5-yl)phen-yl]-2,5-dimethyl-piperazin-1-yl]-methyl]pyridazine], the hepatocyte CLint in series [4] came out at 2 µL/min/1e6 cells. For the same molecule, the values for the fraction unbound in series [1], in series [2] and in series [3] were 0.13, 0.06 and 0.23, respectively. Further, the recovery was found to be 90% in series [1], 96% in series [2] and 92% in series [3].
For `CC(C)Cc1cc(F)c(-c2nn[nH]n2)c(N2CCN(Cc3ccccn3)[C@@H](C)C2)c1` [Compound A-217, (2S)-4-[3-fluoro-5-isobutyl-2-(2H-tetrazol-5-yl)phenyl]-2-methyl-1-(2-pyridylmethyl)piperazine], the fraction unbound in series [2] and in series [3] was 0.004 throughout. The recovery in series [2] amounted to 100%; in series [3], 98%.
